Data: PubChem BioAssay AID248 (DTP/NCI, 2004)
Values joined by “and” are separate entries in the source; they are usually repeats but may differ in a detail not shown here. Identical values can stand only once. Toxic doses and inconclusive results are not listed. Cut-off read from the data, not from the text of the source: active = T/C of 150% or more; inactive = T/C below 125%.

Test system: L1210 leukemia ip in BDF1 mice, survival T/C
Experiment: NCI In Vivo Anticancer Drug Screen. Data for tumor model L1210 Leukemia (intraperitoneal) in B6D2F1 (BDF1) mice
Details: endpoint: mean survival time, higher = longer survival
Outline: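 Mice bearing the transplanted tumor received compound or vehicle. Survival of the treated group was divided by that of the vehicle-treated control group to give the ratio.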

[1] = dose: 50.0 mg/kg/injection, schedule: Q01DX001 (ip), vehicle: carboxymethylcellulose (CMC)
[2] = dose: 100.0 mg/kg/injection, schedule: Q01DX001 (ip), vehicle: carboxymethylcellulose (CMC)
[3] = dose: 200.0 mg/kg/injection, schedule: Q01DX001 (ip), vehicle: carboxymethylcellulose (CMC)
[4] = dose: 400.0 mg/kg/injection, schedule: Q01DX001 (ip), vehicle: carboxymethylcellulose (CMC)
[5] = dose: 100.0 mg/kg/injection, schedule: Q01DX009 (ip), vehicle: saline
[6] = dose: 200.0 mg/kg/injection, schedule: Q01DX009 (ip), vehicle: saline
[7] = dose: 400.0 mg/kg/injection, schedule: Q01DX009 (ip), vehicle: saline
[8] = dose: 100.0 mg/kg/injection, schedule: Q01DX009 (ip), vehicle: Klucel (hydroxypropylcellulose) (HPC)
[9] = dose: 100.0 mg/kg/injection, schedule: Q01DX009 (ip), vehicle: saline with Tween-80
[10] = dose: 200.0 mg/kg/injection, schedule: Q01DX009 (ip), vehicle: saline with Tween-80
[11] = dose: 100.0 mg/kg/injection, schedule: Q04DX003 (ip), vehicle: saline with Tween-80
[12] = dose: 200.0 mg/kg/injection, schedule: Q04DX003 (ip), vehicle: saline with Tween-80
[13] = dose: 100.0 mg/kg/injection, schedule: Q04DX003 (ip), vehicle: saline
[14] = dose: 200.0 mg/kg/injection, schedule: Q04DX003 (ip), vehicle: saline
[15] = dose: 400.0 mg/kg/injection, schedule: Q04DX003 (ip), vehicle: saline
[16] = dose: 100.0 mg/kg/injection, schedule: Q01DX001 (ip), vehicle: saline
[17] = dose: 200.0 mg/kg/injection, schedule: Q01DX001 (ip), vehicle: saline
[18] = dose: 400.0 mg/kg/injection, schedule: Q01DX001 (ip), vehicle: saline

Measured: T/C

O=C(/C=C/c1ccccc1)NC(=S)NC1CCCCC1
inactive: dose: 50.0 mg/kg/injection, schedule: Q01DX009 (ip), vehicle: carboxymethylcellulose (CMC) 101 % of control and 102 % of control | dose: 50.0 mg/kg/injection, schedule: Q04DX003 (ip), vehicle: carboxymethylcellulose (CMC) 103 % of control | dose: 100.0 mg/kg/injection, schedule: Q01DX009 (ip), vehicle: carboxymethylcellulose (CMC) 97 % of control and 90 % of control | dose: 100.0 mg/kg/injection, schedule: Q04DX002 (ip), vehicle: carboxymethylcellulose (CMC) 100 % of control and 106 % of control | dose: 100.0 mg/kg/injection, schedule: Q04DX003 (ip), vehicle: carboxymethylcellulose (CMC) 96 % of control | dose: 200.0 mg/kg/injection, schedule: Q01DX009 (ip), vehicle: carboxymethylcellulose (CMC) 93 % of control and 91 % of control | dose: 200.0 mg/kg/injection, schedule: Q04DX002 (ip), vehicle: carboxymethylcellulose (CMC) 103 % of control and 91 % of control | dose: 200.0 mg/kg/injection, schedule: Q04DX003 (ip), vehicle: carboxymethylcellulose (CMC) 96 % of control | dose: 400.0 mg/kg/injection, schedule: Q04DX002 (ip), vehicle: carboxymethylcellulose (CMC) 87 % of control

Clc1ccccc1/C=N/Nc1nnc(N/N=C/c2ccccc2Cl)c2ccccc12
inactive: [1] 95 % of control | [2] 89 % of control | [3] 89 % of control | [4] 89 % of control

CSC(=S)NNC(=O)c1ccc(C)cc1
inactive: dose: 20.0 mg/kg/injection, schedule: Q04DX003 (ip), vehicle: saline 96 % of control | dose: 40.0 mg/kg/injection, schedule: Q04DX003 (ip), vehicle: saline 98 % of control | dose: 75.0 mg/kg/injection, schedule: Q01DX001 (ip), vehicle: saline 98 % of control | dose: 75.0 mg/kg/injection, schedule: Q04DX003 (ip), vehicle: saline 105 % of control

CC(=O)NC1CCCC(O)C1 (stereo not drawn)
inactive: [5] 87 % of control | [6] 92 % of control | [7] 92 % of control

Brc1ccc(Br)c2cnccc12
inactive: dose: 100.0 mg/kg/injection, schedule: Q01DX001 (ip), vehicle: other 93 % of control | dose: 200.0 mg/kg/injection, schedule: Q01DX001 (ip), vehicle: other 106 % of control | dose: 400.0 mg/kg/injection, schedule: Q01DX001 (ip), vehicle: other 104 % of control

COc1ccc(COC(=O)CN2C(=O)c3ccccc3C2=O)cc1
inactive: [8] 98 % of control | dose: 100.0 mg/kg/injection, schedule: Q04DX003 (ip), vehicle: Klucel (hydroxypropylcellulose) (HPC) 95 % of control | dose: 200.0 mg/kg/injection, schedule: Q01DX009 (ip), vehicle: Klucel (hydroxypropylcellulose) (HPC) 107 % of control | dose: 200.0 mg/kg/injection, schedule: Q04DX003 (ip), vehicle: Klucel (hydroxypropylcellulose) (HPC) 95 % of control | dose: 400.0 mg/kg/injection, schedule: Q01DX009 (ip), vehicle: Klucel (hydroxypropylcellulose) (HPC) 98 % of control | dose: 400.0 mg/kg/injection, schedule: Q04DX003 (ip), vehicle: Klucel (hydroxypropylcellulose) (HPC) 93 % of control

COc1ccc(C)cc1NC(=O)SCc1ccccc1
inactive: [9] 100 % of control | [10] 101 % of control | dose: 400.0 mg/kg/injection, schedule: Q01DX009 (ip), vehicle: saline with Tween-80 94 % of control

OCCN1CCC2(CC1)SSC1(CCN(CCO)CC1)S2
inactive: dose: 50.0 mg/kg/injection, schedule: Q01DX009 (ip), vehicle: saline with Tween-80 104 % of control | [9] 98 % of control | [11] 100 % of control | [10] 93 % of control | [12] 104 % of control

Nc1c(Cl)cc(S(N)(=O)=O)cc1Cl
inactive: dose: 100.0 mg/kg/injection, schedule: Q01DX009 (ip), vehicle: other 98 % of control | dose: 100.0 mg/kg/injection, schedule: Q04DX003 (ip), vehicle: other 100 % of control | dose: 200.0 mg/kg/injection, schedule: Q01DX009 (ip), vehicle: other 91 % of control | dose: 200.0 mg/kg/injection, schedule: Q04DX003 (ip), vehicle: other 98 % of control | dose: 400.0 mg/kg/injection, schedule: Q04DX003 (ip), vehicle: other 98 % of control

Nc1ccc(S(=O)(=O)c2cc(CC(N)C(=O)O)cc(O)c2O)cc1 (stereo not drawn)
inactive: dose: 87.5 mg/kg/injection, schedule: Q01DX009 (ip), vehicle: saline 98 % of control | dose: 175.0 mg/kg/injection, schedule: Q01DX009 (ip), vehicle: saline 96 % of control | dose: 350.0 mg/kg/injection, schedule: Q01DX009 (ip), vehicle: saline 86 % of control

Nc1ncnc2c1ncn2C1CC(O)C(CO)O1 (stereo not drawn)
inactive: [11] 101 % of control | [13] 98 % of control | [12] 98 % of control | [14] 104 % of control | dose: 400.0 mg/kg/injection, schedule: Q04DX003 (ip), vehicle: saline with Tween-80 98 % of control | [15] 93 % of control | dose: 440.0 mg/kg/injection, schedule: Q03HX024 (ip), vehicle: saline with Tween-80 105 % of control | dose: 660.0 mg/kg/injection, schedule: Q03HX024 (ip), vehicle: saline with Tween-80 110 % of control | dose: 1000.0 mg/kg/injection, schedule: Q03HX024 (ip), vehicle: saline with Tween-80 104 % of control

OC1COC(n2cnc3c(=S)nc[nH]c32)CC1O (stereo not drawn)
inactive: dose: 5.0 mg/kg/injection, schedule: Q01DX001 (ip), vehicle: saline 100 % of control | dose: 10.0 mg/kg/injection, schedule: Q01DX001 (ip), vehicle: saline 103 % of control | dose: 20.0 mg/kg/injection, schedule: Q01DX001 (ip), vehicle: saline 100 % of control | dose: 40.0 mg/kg/injection, schedule: Q01DX001 (ip), vehicle: saline 95 % of control | [16] 107 % of control | [17] 108 % of control | [18] 124 % of control

CO[C@H]1/C=C/O[C@@]2(C)Oc3c(C)c(O)c4c(O)c(c(/C=N/N5CCN(C)CC5)c(O)c4c3C2=O)NC(=O)/C(C)=C\C=C\[C@H](C)[C@H](O)[C@@H](C)[C@@H](O)[C@@H](C)[C@H](OC(C)=O)[C@@H]1C
inactive: dose: 25.0 mg/kg/injection, schedule: Q01DX009 (ip), vehicle: Klucel (hydroxypropylcellulose) (HPC) 96 % of control | dose: 50.0 mg/kg/injection, schedule: Q01DX001 (ip), vehicle: water 97 % of control | dose: 50.0 mg/kg/injection, schedule: Q01DX009 (ip), vehicle: Klucel (hydroxypropylcellulose) (HPC) 94 % of control | [16] 97 % of control | dose: 100.0 mg/kg/injection, schedule: Q01DX001 (ip), vehicle: water 103 % of control | [8] 94 % of control | [17] 100 % of control | dose: 200.0 mg/kg/injection, schedule: Q01DX001 (ip), vehicle: water 100 % of control | [18] 97 % of control | dose: 400.0 mg/kg/injection, schedule: Q01DX001 (ip), vehicle: water 108 % of control | dose: 1200.0 mg/kg/injection, schedule: Q01DX001 (ip), vehicle: acetone 102 % of control

CNC(=O)Oc1ccccc1CCl
inactive: dose: 50.0 mg/kg/injection, schedule: Q01DX001 (ip), vehicle: Klucel (hydroxypropylcellulose) (HPC) 97 % of control | dose: 100.0 mg/kg/injection, schedule: Q01DX001 (ip), vehicle: Klucel (hydroxypropylcellulose) (HPC) 97 % of control | dose: 200.0 mg/kg/injection, schedule: Q01DX001 (ip), vehicle: Klucel (hydroxypropylcellulose) (HPC) 92 % of control

Cn1c(O)c(C=N)c(=O)[nH]c1=O
inactive: [5] 86 % of control | [13] 90 % of control | [6] 88 % of control | [14] 92 % of control | [7] 86 % of control | [15] 90 % of control

NC(=O)C1(Nc2ccc(-c3ccc(Cl)cc3)cc2)CCCC1
inactive: [1] 96 % of control | [2] 93 % of control | [3] 90 % of control | [4] 87 % of control

O=C1c2ccccc2C(=O)N1O
inactive: [1] 95 % of control | [2] 90 % of control | [3] 95 % of control
